assay: in vitro; settings: human, hela cells, % viability

Point of comparison: `O=C(O)C1CC=C(Cl)CC1C(=O)Nc1ccc(Cl)cc1[N+](=O)[O-]` (stereo not drawn) [CBK265612], viability at 28.5 h, 10 µM 101%. Against it:
- CCn1c(SCC(=O)N2CCN(c3ccccc3)CC2)nnc1-c1ccc(N)cc1 [CBK265786] — higher, 103%
- CCc1nn(C)cc1CNC1CCCN(c2ccc(C#N)cc2)C1=O (stereo not drawn) [CBK304176] — lower, 96.4%
- Cc1ccc2nc(-c3ccc(/N=C/c4ccc(/C=N/c5ccc(-c6nc7ccc(C)cc7s6)cc5)cc4)cc3)sc2c1 [CBK261661] — lower, 87.1%
- O=C(CCc1ccc(Cl)cc1)NCCn1cncn1 [CBK283184] — lower, 98.6%
- COCOc1ccc(-c2nccnc2OC2CCCCC2)cc1 [CBK106917] — lower, 94.3%
- O=C1NC/C=C/CC2(CCN(C(=O)c3cccnn3)CC2)C(=O)NCCOc2ccccc21 [CBK292095] — higher, 108%
- Cc1c(Cl)c([N+](=O)[O-])nn1CC(=O)N1CCN(Cc2ccccc2)CC1 [CBK261720] — lower, 89.8%
- CCn1c(SCc2cc(Cl)c3c(c2)OCCO3)nnc1-c1ccc(OC)cc1 [CBK297086] — lower, 88.9%
- CC1(C)CC(NC(=O)CN2CCCCC2)CC(C)(C)N1 [CBK261956] — lower, 92.4%
- O=C(NCCc1c[nH]c2ccccc12)c1ccc(-c2ccco2)nc1N1CCN(C(=O)c2ccco2)CC1 [CBK076217] — lower, 95.4%
- CCOC(=O)c1ccc(NC(=O)N2CCC3(CC2)NC(=O)Cc2ccccc23)cc1 [CBK047362] — higher, 107%
- CC(=O)c1sccc1NS(=O)(=O)c1ccccc1 [CBK038384] — lower, 92.5%
- O=C(O)/C=C/C(=O)N1N=C(c2ccc(F)cc2)CC12C(=O)Nc1ccccc12 (stereo not drawn) [CBK286747] — lower, 88.9%
- CCN(CC)C(=O)CN1CCN(c2nccnc2OC)CC1 [CBK084221] — lower, 83.9%
- CCOC(=O)CN/C(=N/O)c1c(Cl)cccc1Cl [CBK022374] — lower, 99.6%
- Cc1nc(Nc2c(Cl)cc(S(N)(=O)=O)cc2Cl)sc1C(=O)Nc1ccccc1 [CBK265335] — higher, 106%
- O=C(O)C1CCCN1S(=O)(=O)c1ccc([N+](=O)[O-])cc1 (stereo not drawn) [CBK261424] — lower, 89.7%
- O=S(=O)(N1CCCCC1)N1CCCN(S(=O)(=O)N2CCCCC2)CC1 [CBK268939] — lower, 85.4%
- CC(C)(C)c1ccc(CNC(=O)C2CCCN2S(=O)(=O)c2ccc3ccccc3c2)cc1 (stereo not drawn) [CBK265020] — higher, 109%
- O=C(CSCc1ccc(Cl)cc1Cl)Nc1nccs1 [CBK131921] — higher, 103%
- CCOc1ccc2nc(SCCN3CCOCC3)sc2c1 [CBK005888] — lower, 89.6%
- Cc1cccc(-c2cc(C(=O)Nc3sc4c(c3C#N)CCCCCC4)c3ccccc3n2)c1 [CBK262632] — higher, 103%
- CCCC1C(C(N)=O)=C(C)NC(C)=C1C(N)=O [CBK019102] — higher, 105%
- Cn1cc(CN2C[C@H]3CN(C(=O)C4CCC4)C[C@@]3(C(=O)O)C2)cc1C#N [CBK307105] — the same, 101%
- COc1ccc(Cl)cc1C(=O)Nc1cnn(CCCC(=O)O)c1 [CBK269855] — lower, 80.7%
- C=CCn1c(C)c(CN2CCc3c(nc(C)[nH]c3=O)C2)c2ccccc21 [CBK283990] — lower, 88.6%
- Cc1ccccc1C(=O)NCC(=O)NCc1csc(-c2ccccc2)n1 [CBK092334] — lower, 91.8%
- CCC(=O)N1CCc2cc(C(O)CN3CCCCC3C)ccc21 (stereo not drawn) [CBK283112] — higher, 105%
- CN(C(=O)c1ccc(-n2nncc2-c2ccccc2)cc1)c1ccccc1 [CBK288107] — higher, 108%
- COc1ccc(OCC(=O)Nc2ccc(CN3CCOCC3)cc2)cc1 [CBK269686] — higher, 105%
- COc1ccc(-c2cccc(C3CCCN(C(=O)c4ccc(F)cc4)C3)n2)cc1 (stereo not drawn) [CBK286107] — lower, 99.3%
- c1ccc([C@@H]2CN(Cc3ccncc3)C[C@H]2c2cc[nH]n2)cc1 [CBK285161] — lower, 88%
- O=C(CNS(=O)(=O)c1ccc(Br)cc1)N1CCN(Cc2ccc3c(c2)OCO3)CC1 [CBK074358] — lower, 98.1%
- CCc1cc(=O)[nH]c(-c2ccc(N3CCOCC3C)nc2)n1 (stereo not drawn) [CBK305532] — lower, 95.7%
- Cc1ccn(CCC(=O)N2CCC[C@@H]3NC(=O)c4ccccc4OCC/C=C/C[C@@H]32)n1 [CBK292082] — higher, 109%
- COc1ccc(S(=O)(=O)Nc2ccc(C(=O)O)c(O)c2)cc1[N+](=O)[O-] [CBK299771] — lower, 95.7%
- CCn1ncc(CN(C)C(=O)CCN2CCCCCC2=O)c1C [CBK306718] — lower, 97.2%
- N#C/C(=C\c1cn(Cc2ccc(Cl)cc2Cl)nc1-c1ccccc1)c1nc2ccccc2[nH]1 [CBK262545] — lower, 87.3%
- NCC1OCCc2ccccc21 (stereo not drawn) [CBK027717] — higher, 108%
- COc1cc(C#N)ccc1OCc1cc(C)on1 [CBK002581] — lower, 86.1%
- Cc1cc(OC(C)C(=O)Nc2ccccc2C(=O)N2CCCCC2)ccc1Cl (stereo not drawn) [CBK269696] — higher, 104%
- COc1cc(CNC(=O)c2cccc(-c3ccc(OC4CCNCC4)cc3)n2)cc(OC)c1OC [CBK126550T] — lower, 87.1%
- O=C(CSc1ncccn1)N/N=C/c1ccncc1 [CBK262401] — higher, 103%
- O=C(CN1C(=O)COc2ccccc21)NCc1ccco1 [CBK269682] — lower, 94.8%
- Cc1cc(NC(=O)Cn2cc(Br)cn2)no1 [CBK305706] — higher, 102%
- Cc1n[nH]c(C)c1CCC(=O)N/N=C/c1cccc(O)c1 [CBK262910] — lower, 97.7%
- COc1ccc(NC(=S)NC(=N)N2CCN(Cc3ccccc3)CC2)cc1 [CBK267858] — lower, 95.1%
- CCn1c(C)nc2cc(NC(=O)Cn3cc(C(=O)NC4CCCCC4)ccc3=O)ccc21 [CBK286095] — lower, 92.9%
- O=C1NC2(CCCN(C(=O)c3ccco3)C2)Nc2ccccc21 (stereo not drawn) [CBK284803] — higher, 104%
- COc1cc(-c2cncc(N[C@@H](C)c3ccccc3)n2)cc(OC)c1OC [CBK065551] — higher, 104%
- O=C(Nc1ccc(NC(=O)c2ccco2)cc1)c1ccc(N2CCOCC2)c([N+](=O)[O-])c1 [CBK268739] — lower, 95.2%
- COc1ccc(OC[C@@H](N)C(C)C)cc1 [CBK284299] — lower, 93.9%
- O=C1C[C@@H]2CCN(C(=O)NC3CCCCC3)C[C@@H]2CCN1CCN1CCNC1=O [CBK288796] — lower, 96.4%
- CCNC(=O)N[C@@H]1C=C[C@@H](c2c(C)nn(CCC#N)c2C)C1 [CBK289171] — higher, 111%
- O=C(NCc1ccc(F)cc1)[C@H]1CN2CCC1C[C@@H]2Cn1cc(C2(O)CCCC2)nn1 (stereo partly drawn) [CBK289093] — higher, 109%
- N#Cc1sc2nc(C34CC5CC(CC(C5)C3)C4)ccc2c1N [CBK267455] — lower, 93.8%
- CC1=C(c2ccc(OC(C)(C)CN3CCCC3)cc2)C(C)CCC1 (stereo not drawn) [CBK012357C] — lower, 86.1%
- O=C(CSc1ccc2ccccc2c1)Nc1ccc(Cl)c(C(=O)O)c1 [CBK268239] — higher, 103%
- Cc1ccc(F)c(OC2(C(=O)O)CCN(Cc3cnc(C)nc3)CC2)c1 [CBK306860] — lower, 100%
- CCOC(=O)CNS(=O)(=O)c1cc(Cl)sc1Cl [CBK034431] — higher, 113%
- COCCn1c(Cc2ccccc2)nnc1SCc1ccc2ccccc2c1 [CBK265985] — lower, 96.6%
- Cc1ccc(C(=O)NC(=S)Nc2ccc(-c3ccc(CO)o3)cc2)cc1[N+](=O)[O-] [CBK269127] — higher, 110%
- NS(=O)(=O)c1ccc(CCNC2=CC(=O)CC(c3ccco3)C2)cc1 (stereo not drawn) [CBK265852] — lower, 97%
- Cc1cc(-c2ccc(/N=C/c3cccc(O)c3O)c(C)c2)ccc1/N=C/c1cccc(O)c1O [CBK261613] — lower, 82.6%
- COc1cccc(Nc2cc(-c3ccc(N4CCOCC4)cc3)ncn2)c1 [CBK090733] — lower, 68.7%
- Cc1ccc(-n2ncc3c(=O)n(CC(=O)Nc4ccccc4)cnc32)cc1C [CBK287539] — lower, 87.3%
- COc1nc2ccccc2nc1CCc1nc(-c2ccccc2)no1 [CBK269840] — lower, 86%
- CC(C)CCNC(=O)N1CCNC(=O)C1 [CBK155874] — lower, 98.3%
- Cc1ccc(C(=O)N2CCN(C)CC2)c(N2CCOCC2)n1 [CBK106199] — lower, 100%
- O=C(Nc1cccnc1)c1cc(S(=O)(=O)N2CCCCC2)c(Cl)cc1Cl [CBK264567] — lower, 91.9%
- Cc1ccc2[nH]c(C3CCCCN3C(=O)c3ccncc3)nc2c1 (stereo not drawn) [CBK284000] — higher, 103%
- CCN(CC)C(=O)CN1C(=O)C2(Nc3ccccc3C(=O)N2c2ccc(C)cc2)c2ccccc21 (stereo not drawn) [CBK093478] — lower, 86%
- O=C(c1ccco1)N1CCN(S(=O)(=O)c2ccc(Cl)cc2)CC1 [CBK068411] — higher, 104%
- NC(=O)CSc1nnc(-c2ccncc2)[nH]1 [CBK026179] — higher, 107%
- Cc1ccc(Oc2ccc(S(=O)(=O)N3CCOCC3)cc2C(=O)O)cc1 [CBK286748] — lower, 90.4%
- O=S(=O)(c1ccc(F)cc1)c1nc(-c2cccs2)oc1N1CCN(Cc2ccccc2)CC1 [CBK267672] — lower, 89.7%
- O=C(NC(Cc1ccsc1)c1ccccn1)c1ccc(=O)[nH]c1 (stereo not drawn) [CBK285272] — higher, 106%
- O=C(O)CCc1ccc(-c2cccs2)n1-c1ccc(Cl)c(Cl)c1 [CBK264797] — lower, 88.7%
- Cc1ccc(C(=O)N2CCC(C(=O)NC(c3ccccc3)c3ccc4ccccc4n3)CC2)cc1 (stereo not drawn) [CBK059663] — lower, 87.9%
- COc1cccc(C(=O)Nc2cc3c(cc2C(O)c2ccccc2Cl)OCCO3)c1 (stereo not drawn) [CBK268004] — lower, 99.3%
- CC1CCC(C(N)=O)CN1c1cc(=O)n2ccccc2n1 (stereo not drawn) [CBK304835] — higher, 104%
- COc1ccc(CN2C(=O)COC[C@@H]2[C@H](O)c2ccc(NC(=O)c3ccc(OC)cc3)cc2)cc1 [CBK289675] — lower, 95.9%
- COc1cccc(C(=O)N2CCC(NC(=O)c3csc(-c4ccccc4)n3)CC2)c1 [CBK155030] — lower, 90.4%
- COC(=O)c1ccc(NC(=O)CNc2ccccc2)cc1 [CBK268064] — higher, 110%
- CN(C)C(=O)CC(O)c1cc2n(n1)CCN(Cc1cccs1)C2 (stereo not drawn) [CBK306620] — higher, 113%
- CC(C)NCC(O)c1c2c(cc3c1CCC3)CCC2 (stereo not drawn) [CBK012972F] — higher, 108%
